According to ChEMBL document CHEMBL1201862, “PubChem BioAssay data set” (2004):
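Where inhibition never reached the appropriate level, the endpoint shown equals the highest concentration tested. Otherwise, values were interpolated linearly from a five-concentration, 48-hour dose response in 96-well plates. GI50 = concentration required for 50% inhibition of growth.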 Calls of active or inactive are those of the source. Rule as the data show it: active = GI50 up to about 1.1 µM and inactive = higher.

Legend:
Assay in all cases: growth of human tumour cells (NCI), 48 h
[1] = test system: 786-0
[2] = test system: KM-20L2
[3] = test system: UACC-257
[4] = test system: SW-620
[5] = test system: SNB-19
[6] = test system: KM12
[7] = test system: OVCAR-8
[8] = test system: RXF 393
[9] = test system: Malme-3M
[10] = test system: SK-OV-3
[11] = test system: HOP-18
[12] = test system: EKVX
[13] = test system: A549
[14] = test system: SF-295
[15] = test system: NCI-H522
[16] = test system: OVCAR-3
[17] = test system: U-251
[18] = test system: SK-MEL-28
[19] = test system: RPMI-8226
[20] = test system: NCI-H226
[21] = test system: SR
[22] = test system: TK-10
[23] = test system: SNB-75
[24] = test system: LXFL 529
[25] = test system: NCI-H23
[26] = test system: DLD-1
[27] = test system: SK-MEL-5
[28] = test system: SN12C
[29] = test system: ACHN
[30] = test system: MOLT-4
[31] = test system: DMS-273
[32] = test system: COLO 205
[33] = test system: M19-MEL
[34] = test system: HCT-116
[35] = test system: HCT-15
[36] = test system: M14
[37] = test system: NCI-H460
[38] = test system: HT-29
[39] = test system: SF-539
[40] = test system: HOP-62
[41] = test system: UACC-62
[42] = test system: HL-60
[43] = test system: SK-MEL-2
[44] = test system: CAKI-1
[45] = test system: CCRF-CEM
[46] = test system: K562
[47] = test system: XF498
[48] = test system: OVCAR-4
[49] = test system: IGROV-1
[50] = test system: HOP-92
[51] = test system: SF-268
[52] = test system: UO-31
[53] = test system: DMS-114

Question: For COC1=CC(=O)c2ccc(C(C)C)cc2C1(C)C1=NC(C)(C)CO1 (stereo not drawn), which GI50 [1] is on record?
Answer: > 100 µM (inactive)

Question: What about the GI50 [2] of the same compound?
Answer: > 100 µM (inactive)

Question: What about the GI50 [3] of the same compound?
Answer: 65.8 µM (inactive)

Question: And the GI50 [4]?
Answer: > 100 µM (inactive)

Question: And the GI50 [5]?
Answer: > 100 µM (inactive)

Question: And the GI50 [6]?
Answer: > 100 µM (inactive)

Question: And the GI50 [7]?
Answer: > 100 µM (inactive)

Question: And the GI50 [8]?
Answer: > 100 µM (inactive)

Question: What about the GI50 [9] of the same compound?
Answer: > 100 µM (inactive)

Question: What about the GI50 [10] of the same compound?
Answer: > 100 µM (inactive)

Question: And the GI50 [11]?
Answer: > 100 µM (inactive)

Question: What about the GI50 [12] of the same compound?
Answer: > 100 µM (inactive)

Question: What about the GI50 [13] of the same compound?
Answer: > 100 µM (inactive)

Question: And the GI50 [14]?
Answer: > 100 µM (inactive)

Question: What about the GI50 [15] of the same compound?
Answer: 77.4 µM (inactive)

Question: And the GI50 [16]?
Answer: > 100 µM (inactive)

Question: What about the GI50 [17] of the same compound?
Answer: > 100 µM (inactive)

Question: What about the GI50 [18] of the same compound?
Answer: > 100 µM (inactive)

Question: What about the GI50 [19] of the same compound?
Answer: 41.4 µM (inactive)

Question: What about the GI50 [20] of the same compound?
Answer: > 100 µM (inactive)

Question: And the GI50 [21]?
Answer: 86.3 µM (inactive)

Question: What about the GI50 [22] of the same compound?
Answer: > 100 µM (inactive)

Question: What about the GI50 [23] of the same compound?
Answer: 80.5 µM (inactive)

Question: And the GI50 [24]?
Answer: > 100 µM (inactive)

Question: What about the GI50 [25] of the same compound?
Answer: > 100 µM (inactive)

Question: And the GI50 [26]?
Answer: > 100 µM (inactive)

Question: And the GI50 [27]?
Answer: > 100 µM (inactive)

Question: What about the GI50 [28] of the same compound?
Answer: > 100 µM (inactive)

Question: What about the GI50 [29] of the same compound?
Answer: > 100 µM (inactive)

Question: And the GI50 [30]?
Answer: 81.7 µM (inactive)

Question: And the GI50 [31]?
Answer: > 100 µM (inactive)

Question: What about the GI50 [32] of the same compound?
Answer: > 100 µM (inactive)

Question: And the GI50 [33]?
Answer: > 100 µM (inactive)

Question: What about the GI50 [34] of the same compound?
Answer: > 100 µM (inactive)

Question: And the GI50 [35]?
Answer: > 100 µM

Question: What about the GI50 [36] of the same compound?
Answer: > 100 µM (inactive)

Question: What about the GI50 [37] of the same compound?
Answer: > 100 µM (inactive)

Question: And the GI50 [38]?
Answer: > 100 µM (inactive)

Question: What about the GI50 [39] of the same compound?
Answer: > 100 µM (inactive)

Question: What about the GI50 [40] of the same compound?
Answer: > 100 µM (inactive)

Question: And the GI50 [41]?
Answer: > 100 µM (inactive)

Question: What about the GI50 [42] of the same compound?
Answer: 63 µM (inactive)

Question: What about the GI50 [43] of the same compound?
Answer: > 100 µM (inactive)

Question: And the GI50 [44]?
Answer: > 100 µM (inactive)

Question: What about the GI50 [45] of the same compound?
Answer: > 100 µM (inactive)

Question: What about the GI50 [46] of the same compound?
Answer: 76 µM (inactive)

Question: And the GI50 [47]?
Answer: > 100 µM (inactive)

Question: What about the GI50 [48] of the same compound?
Answer: > 100 µM (inactive)

Question: What about the GI50 [49] of the same compound?
Answer: > 100 µM (inactive)

Question: What about the GI50 [50] of the same compound?
Answer: 86.7 µM (inactive)

Question: What about the GI50 [51] of the same compound?
Answer: > 100 µM (inactive)

Question: And the GI50 [52]?
Answer: > 100 µM (inactive)

Question: And the GI50 [53]?
Answer: > 100 µM (inactive)
